Several values for one entry are separate records, joined by “and”; a condition that tells them apart may be missing. Equal values may be shown once.
Legend:
[1] = Detection of 13C isotope-carrying metabolites after oral stable isotope-carrying indole (HPLC/MS); format: in vivo, C57BL/6J mice; settings: 2 h after gavage of 13C (C2) indole; N = 1
Experimental: Since indole is produced endogenously by the gut microbiota from dietary compounds, it is possible that the metabolites identified in the organ extracts were produced from endogenous indole or other precursors rather than the exogenously supplied indole. […] We detected heavier isotopes of indolin-2-one and 3-hydroxyindolin-2-one in the brain, liver, cecum, small intestine, and colon 2 h after administration (Figure 4, Figures S1–S15). This confirmed the previous experiment and provided direct evidence that indole in the gut is a substrate for several metabolites that spread throughout the body and even to the brain.
All animal testing was performed with the European Communities Council Directive 2010/63/E.U. guidelines and approved by the Lithuania State Food and Veterinary Service, Animal Ethics Experimentation Committee (project G2-244). C57BL/6JRj mouse line animals (Janvier Labs, Le Genest-Saint-Isle, France) were used for all procedures. Before the experiment, animals were housed in groups under a 12 h light–dark cycle with a temperature of 21 ± 1 °C and humidity of 55 ± 10%. […]
(§1) Organ extracts were analyzed by HPLC/MS as described in [20]. […] Limits of detection (LOD) for HPLC determination of the metabolite concentrations were determined by using different concentrations of standard solutions and following the same extraction protocol as described above.

[2] = in vivo; format: in vivo, C57BL/6J mice; settings: for Tmax: C57BL/6JRj, mouse, in vivo, 350 mg/kg
Experimental: (§2) All animal testing was performed with the European Communities Council Directive 2010/63/E.U. guidelines and approved by the Lithuania State Food and Veterinary Service, Animal Ethics Experimentation Committee (project G2-244). C57BL/6JRj mouse line animals (Janvier Labs, Le Genest-Saint-Isle, France) were used for all procedures. Before the experiment, animals were housed in groups under a 12 h light–dark cycle with a temperature of 21 ± 1 °C and humidity of 55 ± 10%. The experiment was conducted in 3 major phases (Figure 8).
Animals were starved for 1 h before the administration of the compounds. […] The animals then were housed in single cages and culled at different time points (30 min, 1 h, 2 h, 4 h, and 6 h). The organs were immediately extracted on ice and stored at –80 °C until further analysis. The inside of the intestines was cleaned before freezing. 3-Hydroxyindolin-2-one was administered by gavage at three doses (100 mg/kg, 200 mg/kg, and 400 mg/kg). The animals were culled 30 min after the administration. The organs were immediately removed on ice and stored at –80 °C until further analysis.
Organ samples were thawed, weighed, and homogenized (3 cycles ×30 s, using Benchmark the BeadBug 6 homogenizer, Sayreville, NJ, USA) in 1 mL of deionized water containing different concentrations of 1-methylindolin-2-one as an internal standard. Plasma samples were not homogenized and were subjected to liquid–liquid extraction directly. Organ homogenates were centrifuged at 16,000× g for 10 min at 4 °C. The supernatants were extracted three times with equal amounts of ethyl acetate. All three extracts were pooled and evaporated under reduced pressure (AES2000 SpeedVAC, Savant, Thermo Fisher Scientific, Waltham, MA, USA). The dried material was dissolved in 100 μL 50% methanol by vigorous shaking and centrifugation at 16,000× g for 5 min. The supernatant was subjected to HPLC/MS analysis.
as §1

[3] = cited from earlier work
[4] = set-up: method as in PMID 9572285; settings: cited from earlier work
[5] = Plasma and brain concentration after oral administration of 3-hydroxyindolin-2-one; format: in vivo, C57BL/6J mice; settings: 30 min after oral 3-hydroxyindolin-2-one 100, 200, 400 mg/kg
Experimental: as §2
Animals were starved for 1 h before the administration of the compounds. […] The animals then were housed in single cages and culled at different time points (30 min, 1 h, 2 h, 4 h, and 6 h). The organs were immediately extracted on ice and stored at –80 °C until further analysis. The inside of the intestines was cleaned before freezing. 3-Hydroxyindolin-2-one was administered by gavage at three doses (100 mg/kg, 200 mg/kg, and 400 mg/kg). The animals were culled 30 min after the administration. The organs were immediately removed on ice and stored at –80 °C until further analysis. […]
as §1

[6] = tested on: monoamine oxidase; settings: cited from earlier work
[7] = tested on: acetylcholinesterase; settings: cited from earlier work
[8] = tested on: CYP1A2; experiment: Gene expression by real-time PCR after indole administration; format: in vivo, C57BL/6J mice; settings: liver, 1 h after indole administration, increasing with time
Experimental: as §2
(§3) The total RNA was isolated from the mice’s brain medulla and liver tissues using the TRIzol™ Plus RNA Purification Kit according to the manufacturer’s protocol (Thermo Fisher Scientific, Vilnius, Lithuania). To remove gDNA, samples were treated with dsDNase reagent (Thermo Fisher Scientific, Lithuania). cDNA was synthesized using a High-Capacity cDNA Reverse Transcription kit (Thermo Fisher Scientific, Lithuania) according to the manufacturer’s instructions. The expression of CYP1A2, CYP2E1, CYP2A5, CYP2C29, CBR1, CBR3, and GAPDH was analyzed by the QuantStudio™ 3 Real-Time PCR System (Thermo Fisher Scientific, Lithuania), using SYBR™ Green PCR Master Mix (Thermo Fisher Scientific, Lithuania). The following primer sequences were used: Cyp2c29_FW (5′-[…]-3′), Cyp2c29_RV (5′-[…]-3′), Cyp2a5_FW (5′-[…]-3′), Cyp2a5_RV (5′-[…]-3′), Cbr3_FW (5′-[…]-3′), Cbr3_RV (5′-[…]-3′), Cyp1a2_FW (5′-[…]-3′), Cyp1a2_RV (5′-[…]-3′), Cyp2e1_FW (5′-[…]-3′), Cyp2e1_RV (5′-[…]-3′), GAPDH_FW (5′-[…]-3′), GAPDH_RV (5′-[…]-3′), Cbr1_FW (5′-[…]-3′), Cbr1_RV (5′-[…]-3′). All samples were run in duplicates. Ct values were normalized to GAPDH using the delta–delta Ct method.

[9] = tested on: CBR1; experiment: as above; format: in vivo, C57BL/6J mice
Experimental: as §2, §3

[10] = tested on: CYP2E1; experiment: as above; format: in vivo, C57BL/6J mice; settings: liver
Experimental: as §2, §3

[11] = tested on: CBR3; experiment: as above; format: in vivo, C57BL/6J mice; settings: for CBR3 expression increase: liver
Experimental: as §2, §3

[12] = 30 min after oral indole 350 mg/kg, individual mice (samples 1-2)
[13] = 30 min after oral indole 350 mg/kg, individual mice (samples 1-3)
[14] = 1 h after oral indole 350 mg/kg, individual mice (samples 1-3)
[15] = 2 h after oral indole 350 mg/kg, individual mice (samples 1-3)
[16] = 4 h after oral indole 350 mg/kg, individual mice (samples 1-3)
[17] = 6 h after oral indole 350 mg/kg, individual mice (samples 1-3)

Compound: O=C1Cc2ccccc2N1 [Indolin-2-one, 1,3-dihydro-2H-indol-2-one]
- Heavier (13C) isotope of metabolite in brain, liver, cecum, small intestine and colon [1]: detected
- Tmax ([2]; po): 30 min
- Blood–brain barrier crossing [3]: cross the blood–brain barrier
- Effect of low doses in the blood ([4]; 10 mg/kg): reduced blood pressure and mild sedation
- Effect of high doses ([4]; 100 mg/kg): coma and death

Compound: O=C1Nc2ccccc2C1=O [Isatin, 3-hydroxy-2H-indol-2-one]
- Tmax [2]: 360 min
- Tmax ([2]; po): 30 min
- Isatin in the brain ([3]; after systemic administration): up to 5 nmol/g
- Blood–brain barrier crossing [3]: cross the blood–brain barrier

Compound: O=C1Nc2ccccc2C1O (stereo not shown) [3-hydroxyindolin-2-one, 3-hydroxy-1,3-dihydro-2H-indol-2-one]
- Heavier (13C) isotope of metabolite in brain, liver, cecum, small intestine and colon [1]: detected
- Concentration in cecum extracts [2, 12]: 22.14 nmol/g and 29.66 nmol/g
- Concentration in brain extracts [2, 13]: 54.77 nmol/g and 76.19 nmol/g and 69.87 nmol/g
- Concentration in large intestine (LI) extracts [2, 13]: 45.32 nmol/g and 75.39 nmol/g and 41.71 nmol/g
- Concentration in liver extracts [2, 13]: 7.43 nmol/g and 14.12 nmol/g and 15.72 nmol/g
- Concentration in plasma [2, 13]: BDL
- Concentration in small intestine (SI) extracts [2, 13]: 76.51 nmol/g and 53.50 nmol/g and 66.77 nmol/g
- Concentration in brain extracts [2, 14]: 65.73 nmol/g and 37.10 nmol/g and 68.54 nmol/g
- Concentration in cecum extracts [2, 14]: 18.19 nmol/g and 12.89 nmol/g and 17.05 nmol/g
- Concentration in large intestine (LI) extracts [2, 14]: 30.45 nmol/g and 6.37 nmol/g and 58.67 nmol/g
- Concentration in liver extracts [2, 14]: 64.90 nmol/g and 46.68 nmol/g and 86.61 nmol/g
- Concentration in plasma [2, 14]: BDL
- Concentration in small intestine (SI) extracts [2, 14]: 52.78 nmol/g and 4.63 nmol/g and BDL
- Concentration in brain extracts [2, 15]: BDL
- Concentration in cecum extracts [2, 15]: 7.06 nmol/g and 19.80 nmol/g and 10.80 nmol/g
- Concentration in large intestine (LI) extracts [2, 15]: BDL
- Concentration in liver extracts [2, 15]: 63.22 nmol/g and BDL
- Concentration in plasma [2, 15]: BDL
- Concentration in small intestine (SI) extracts [2, 15]: BDL (2×) and 48.78 nmol/g
- Concentration in brain extracts [2, 16]: BDL
- Concentration in cecum extracts [2, 16]: 21.81 nmol/g and 17.61 nmol/g and BDL
- Concentration in large intestine (LI) extracts [2, 16]: BDL
- Concentration in liver extracts [2, 16]: 18.61 nmol/g and BDL and 6.72 nmol/g
- Concentration in plasma [2, 16]: BDL (2×) and 15.47 nmol/g
- Concentration in small intestine (SI) extracts [2, 16]: BDL (2×) and 24.91 nmol/g
- Concentration in brain extracts [2, 17]: BDL
- Concentration in cecum extracts [2, 17]: 35.22 nmol/g and BDL and 13.51 nmol/g
- Concentration in large intestine (LI) extracts [2, 17]: 18.68 nmol/g and BDL and 33.36 nmol/g
- Concentration in liver extracts [2, 17]: BDL
- Concentration in plasma [2, 17]: BDL
- Concentration in small intestine (SI) extracts [2, 17]: BDL
- Presence in the brain ([2]; after oral indole 350 mg/kg): found in the brain
- Time of highest concentrations in liver, small intestine and brain ([2]; after oral indole 350 mg/kg): 1 h
- Concentration in brain [5]: significant dose-dependent increase
- Concentration in plasma [5]: significant dose-dependent increase
- Inhibitory effect on monoamine oxidase compared to isatin [6]: lower inhibitory effect
- Inhibitory effect on acetylcholinesterase compared to isatin [7]: lower inhibitory effect

Compound: c1ccc2[nH]ccc2c1 [Indole, indole]
- Concentration in cecum extracts [2, 12]: 37.54 nmol/g and 22.73 nmol/g
- Concentration in brain extracts [2, 13]: 59.54 nmol/g and 147.88 nmol/g and 22.10 nmol/g
- Concentration in large intestine (LI) extracts [2, 13]: 119.49 nmol/g and 137.49 nmol/g and 66.42 nmol/g
- Concentration in liver extracts [2, 13]: 156.1 nmol/g and 54.56 nmol/g and 3.21 nmol/g
- Concentration in plasma [2, 13]: 170.99 nmol/g and 96.67 nmol/g and 15.31 nmol/g
- Concentration in brain extracts [2, 14]: 4.75 nmol/g and BDL and 5.84 nmol/g
- Concentration in cecum extracts [2, 14]: 29.05 nmol/g and 32.96 nmol/g and 48.99 nmol/g
- Concentration in large intestine (LI) extracts [2, 14]: 4.64 nmol/g and 2.89 nmol/g and 70.74 nmol/g
- Concentration in liver extracts [2, 14]: BDL
- Concentration in plasma [2, 14]: 6.73 nmol/g and 0.00 nmol/g and 10.19 nmol/g
- Concentration in brain extracts [2, 15]: BDL
- Concentration in cecum extracts [2, 15]: 7.99 nmol/g and 0.00 nmol/g and 24.86 nmol/g
- Concentration in large intestine (LI) extracts [2, 15]: 2.89 nmol/g and 7.18 nmol/g and 278.22 nmol/g
- Concentration in liver extracts [2, 15]: 67.36 nmol/g and 3.05 nmol/g and 414.1 nmol/g
- Concentration in plasma [2, 15]: 0.00 nmol/g (2×) and 5.68 nmol/g
- Concentration in brain extracts [2, 16]: BDL and 1.41 nmol/g
- Concentration in cecum extracts [2, 16]: 0.00 nmol/g and 12.47 nmol/g
- Concentration in large intestine (LI) extracts [2, 16]: 30.39 nmol/g and 11.51 nmol/g and 34.93 nmol/g
- Concentration in liver extracts [2, 16]: 8.76 nmol/g and 0.00 nmol/g and 97.7 nmol/g
- Concentration in plasma [2, 16]: 0.00 nmol/g (2×) and 3.97 nmol/g
- Concentration in brain extracts [2, 17]: BDL
- Concentration in cecum extracts [2, 17]: 0.00 nmol/g
- Concentration in large intestine (LI) extracts [2, 17]: 171.66 nmol/g and 231.01 nmol/g and 24.29 nmol/g
- Concentration in liver extracts [2, 17]: 80.7 nmol/g and 58.6 nmol/g and BDL
- Concentration in plasma [2, 17]: 0.00 nmol/g
- Tmax ([2]; po, read-out: Time of peak plasma concentration (converted)): 30 min
- Presence in the brain ([2]; after oral indole 350 mg/kg): found in the brain
- Highest indole concentration (liver) ([2]; liver, 2 h after ingestion of indole 350 mg/kg): 414.15 nmol/g
- Time within which indole is metabolized ([2]; oral indole 350 mg/kg): up to 6 h
- CYP1A2 expression [8]: significant increase
- CBR1 expression ([9]; liver and brain, any time point after indole administration): unaffected
- CBR1 expression level ([9]; liver, after indole administration): not altered
- CYP2E1 expression [10]: mainly unchanged
- CBR3 expression ([11]; brain, 2 h after indole administration): slight increase
- CBR3 expression increase ([11]; 4 h after indole administration): 12 times
- CBR3 expression increase ([11]; 6 h after indole administration): 8 times

From article PMC10934121 (Molecules, 2024)
